Here are results for 2 compounds from patent US20240197891A1, “PHARMACEUTICAL COMPOSITIONS COMPRISING POH DERIVATIVES” (UNIVERSITY OF SOUTHERN CALIFORNIA, priority 2021, published 2024).

The test system of series [1] is follistatin, α6β4 integrin, Yap1. As to the kind of experiment: Staining of the skin for follistatin, α6β4 integrin and Yap1. In kind it is in vivo. From the text: Activins are members of the transforming growth factor-β family of growth and differentiation factors. The biological activity of activins is regulated by the secreted glycoprotein follistatin, which sequesters activins and thus inhibits their biological activities. Follistatin controls keratinocyte proliferation in skin wounds. Most importantly, it has been shown that limited activation of activin in keratinocytes is beneficial for the wound healing process. FIGS. 27A-C show the staining of the skin with activation of follistatin with POH-LA conjugate (FIG. 27A), POH, (FIG. 27B), and Linoleic Acid (FIG. 27C).
FIGS. 27D-F show the staining of the skin with activation of α6β4 integrin with POH-LA conjugate (FIG. 27D), POH, (FIG. 27E), and Linoleic Acid (FIG. 27F).
Yap1 is a critical modulator of epidermal stem cell proliferation and tissue expansion. α-catenin controls Yap1 activity and phosphorylation by modulating its interaction with 14-3-3 and the PP2A phosphatase. This aids in the identification of Yap1 as a determinant of the proliferative capacity of epidermal stem cells and as an important effector of a “crowd control” molecular circuitry in mammalian skin. FIGS. 27G-I show the staining of the skin with activation of Yap1 with POH-LA conjugate (FIG. 27G), POH, (FIG. 27H), and Linoleic Acid (FIG. 27I).

The test system of series [2] is cyclobutane pyrimidine dimers (CPD) and pyrimidine (6-4) pyrimidone photoproducts (6-4PP). As to the kind of experiment: DNA damage (6-4PP and CPD) in UV exposed mouse skin. In kind it is in vivo. Particulars: skin DNA following UV exposure. From the text: FIGS. 26A and 26B show the DNA damage that occurs following UV exposure with and without POH-LA conjugate treatment. Upon euthanasia of animals, skin tissues were collected from the back of the animals, fixed in formalin, and processed for analysis. Absorption of ultraviolet (UV) light produces two predominant types of DNA damage, cyclobutane pyrimidine dimers (CPD) and pyrimidine (6-4) pyrimidone photoproducts (6-4PP). UV DNA Damage standards for comparison to UV exposed mouse skin extracted DNA were used. Both the standard and sample DNA are first heat denatured before they are adsorbed onto a 96-well DNA high-binding plate. The 6-4PP (FIG. 26A) and CPDs (FIG. 26B) present in the sample or standard are probed with an anti6-4PP or CPD antibody, followed by an HRP conjugated secondary antibody. The 6-4PP or CPD content in an unknown sample is determined by comparing with a standard curve that is prepared from predetermined CPD-DNA standards 1,000-1.56 ng/ml). […] The skin has important barrier, sensory, and immune functions, contributing to the health and integrity of the organism. […]
FIGS. 26A and 26B show the DNA damage that occurs following UV exposure with and without POH-LA conjugate treatment. […] The 6-4PP or CPD content in an unknown sample is determined by comparing with a standard curve that is prepared from predetermined CPD-DNA standards 1,000-1.56 ng/ml).

For series [3], the system named is USC-02 glioma cancer stem cells. As to the kind of experiment: MTT cytotoxicity assay, USC-02 glioma cancer stem cells. To be noted: USC-02; increasing concentrations (TMZ 0-400 uM; POH 0-2 mM). It counts as cell-based. From the text:
Cancer Lett. 2011 Mar. 28; 302(2):100-8.

The subject of series [4] is TMZ resistant (U251TR) U251 cells. As to the kind of experiment: Colony forming assay, TMZ resistant U251TR cells. It counts as cell-based, human. The method, then:
Colony forming assays were carried out after cells were treated with TMZ alone, POH alone, and the TMZ-POH conjugate. […] Cancer Lett. 2011 Mar. 28; 302(2):100-8.

As for `C=C(C)[C@@H]1CC=C(COC(=O)CCCCCCC/C=C\C/C=C\CCCCC)CC1` [POH-LA conjugate, Octadeca-9,12-dienoic acid 4-isopropenyl-cyclohex-1-enylmethyl ester], in series [1], the “activation of cellular proteins” value is given as “enhance the activation of cellular proteins” and the “skin regeneration via stem cell activation” value is “stimulate skin regeneration via stem cell activation”. Also, in series [2], the “DNA damage (6-4PP and CPD content)” value is given as “less DNA damage”.

Regarding `C=C(C)[C@@H]1CC=C(CO)CC1` [POH, perillyl alcohol], in series [3], the “cytotoxicity (MTT)” value is “demonstrated cytotoxicity”. Also, the “cytotoxicity (colony forming assay)” value in series [4] is given as “demonstrated cytotoxicity”.
